From patent US20080125445A1, “5,6-Dialkyl-7-Amino-Azolopyrimidines, Method For Their Production, Their Use For Controlling Pathogenic Fungi and Agents Containing Said Compounds” (BASF Aktiengesellschaft, priority 2005, published 2008)

System: Plasmopara viticola
Experiment: Activity against Peronospora of grapevines caused by Plasmopara viticola (comparative test, protective spray)
Type: in vivo
Settings: leaves of potted grapevines sprayed to runoff, inoculated next day; infection on undersides of leaves determined visually; untreated 100%; active compound concentration not given
Protocol: The active compounds were prepared as a stock solution comprising 25 mg of active compound which was made up to 10 ml using a mixture of acetone and/or DMSO and the emulsifier Uniperol® EL (wetting agent having emulsifying and dispersing action based on ethoxylated alkylphenols) in a volume ratio of solvent/emulsifier of 99/1. The mixture was then made up to 100 ml with water. This stock solution was diluted with the solvent/emulsifier/water mixture described to the concentration of active compounds stated below. Leaves of potted grapevines were sprayed to runoff point with an aqueous suspension having the concentration of active compound stated below. The next day, the undersides of the leaves were inoculated with an aqueous sporangia suspension of Plasmopara viticola. The grapevines were then initially placed in a water vapor-saturated chamber at 24° C. for 48 hours and then in a greenhouse at temperatures between 20 and 30° C. for 5 days. After this time, the plants were again placed into a moist chamber for 16 hours to accelerate sporangiophore eruption. The extent of the development of the infection on the undersides of the leaves was then determined visually.

CCCCc1nc2cc(C)nn2c(N)c1CCCC [Compound 17]
Infection in %: 25%

CCCCCc1nc2cc(C)nn2c(N)c1CCCCC [Compound I-1, 2-methyl-5,6-dipentylpyrazolo[1,5-a]pyrimidin-7-ylamine]
Infection in %: 3%
